Here are results for 27 compounds from patent US20230278981A1, “DICHLOROPHENOL HSD17B13 INHIBITORS AND USES THEREOF” (INIPHARM, INC., priority 2020, published 2023).

Where only a bound is given, the exact number is not on record here.

The experiment deals with HSD17B13 (Homo sapiens (Human), UniProt Q7Z5P4). Put plainly: LC/MS estrone detection assay: conversion of estradiol to estrone by HSD17B13. It counts as biochemical. The conditions noted are these: 4 μM estradiol, 6 mM NAD+, 30 nM HSD17B13 enzyme (E. coli expressed His-tagged), 2 hours at 26.5° C. The protocol: The liquid chromatography/mass spectrometry (LC/MS) estrone detection assay monitors the conversion of estradiol to estrone by HSD17B13. This assay was undertaken in a 96wp format (Eppendorf deep well Plate 96/500) in an 80 μl reaction volume containing: 4 μM of Estradiol (E2; Cayman; Ser. No. 10/006,315), 6 mM NAD+(Sigma; #N0623) and 30 nM HSD17B13 enzyme (in-house; E. coli expressed His-tagged, purified, soluble protein) in a reaction containing […] potassium phosphate buffer pH 7.4, with 0.5% vehicle (DMSO). Reactions were incubated for 2 hours at 26.5° C., and estradiol (E2) conversion to estrone (E1) was quantitated by LC-MS/MS based analyte detection for both E2 and E1 using LCMS grade reagents.
Sequence of HSD17B13 (Q7Z5P4 20-300): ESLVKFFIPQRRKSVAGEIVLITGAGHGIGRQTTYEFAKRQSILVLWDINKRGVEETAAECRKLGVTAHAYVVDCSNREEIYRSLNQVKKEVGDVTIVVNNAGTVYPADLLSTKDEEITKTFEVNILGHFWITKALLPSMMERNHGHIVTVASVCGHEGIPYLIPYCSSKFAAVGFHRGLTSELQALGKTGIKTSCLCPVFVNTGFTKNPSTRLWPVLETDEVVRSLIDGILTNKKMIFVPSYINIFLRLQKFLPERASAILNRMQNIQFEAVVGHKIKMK
Reactions were terminated by the addition of two volumes of acetonitrile (MeCN; LCMS grade; CAS #75/05/8) containing deuterated (D4)-E1 used as internal standard (Clear Synth; #CS-T-54273; 500 ng/mL final concentration). Samples were applied to pre-prepared Bond Elut-C18 extraction cartridges (3 mL; Agilent; Ser. No. 12/102,028), washed and eluted in MeCN. Eluates were dried under nitrogen and re-suspended in 60% methanol (LCMS grade methanol; CAS #67/56/1) before submission for analysis. Aqueous linearity for E2 and E1 were included for quantification.
Analysis of samples was undertaken on a XBridge BEH C18 column (Waters; #186003033) using 0.1% Diethyl Amine in MeCN (mobile phase A; DEA CAS #109-89-7) and 0.1% Diethyl Amine in milli-Q water (mobile phase B) in a 3 min gradient allowing 25% B. Analytes were detected in negative mode using MRM analysis, with E2 having a RT of 1.85 min and E1 having a RT of 2 min. Activity of the enzyme, in the absence of NAD^+, was used to evaluate specificity of conversion. Enzyme activity in the presence of test samples was expressed as a percentage of the uninhibited enzyme activity, and plotted versus inhibitor concentration. Non-linear regression was performed using a four-parameter logistic model and GraphPad Prism software (GraphPad Software, La Jolla, Calif.). All assessments were undertaken in duplicate evaluations and pooled during extraction process and subsequently injected as duplicates for LC-MS/MS analysis.

Compound `O=C(Nc1ccc(OCCO)cc1C(=O)NCc1ccccc1OC(F)(F)F)c1cc(Cl)c(O)c(Cl)c1` [Example 86, 3,5-dichloro-4-hydroxy-N-(4-(2-hydroxyethoxy)-2-((2-(trifluoromethoxy)benzyl)carbamoyl)phenyl)benzamide] had an IC50 of 100 to 500 nM.

With `Cc1ccc(NC(=O)c2cc(Cl)c(O)c(Cl)c2)c2c(=O)n(Cc3ccccc3OC(F)(F)F)cnc12` [Example 88, 3,5-dichloro-4-hydroxy-N-(8-methyl-4-oxo-3-(2-(trifluoromethoxy)benzyl)-3,4-dihydroquinazolin-5-yl)benzamide], the IC50 was no more than 100 nM.

`Cc1ccc(NC(=O)c2cc(Cl)c(O)c(Cl)n2)c2c(=O)n(Cc3ccccc3OC(F)(F)F)cnc12` [Example 91, 4,6-dichloro-5-hydroxy-N-(8-methyl-4-oxo-3-(2-(trifluoromethoxy)benzyl)-3,4-dihydroquinazolin-5-yl)picolinamide] had an IC50 of 100 to 500 nM. In turn, `Cc1ccc(NC(=O)c2cc(Cl)c(O)c(Cl)c2)c2c(=O)n(Cc3ccccc3OC(F)(F)F)c(C(F)F)nc12` [Example 149, 3,5-dichloro-N-(2-(difluoromethyl)-8-methyl-4-oxo-3-(2-(trifluoromethoxy)benzyl)-3,4-dihydroquinazolin-5-yl)-4-hydroxybenzamide] came in with an IC50 of no more than 100 nM. `Cc1ccc(NC(=O)c2cc(Cl)c(O)c(Cl)n2)c2c(=O)n(Cc3nn(C)c4ccccc34)c(C)nc12` [Example 162, 4,6-dichloro-N-(2,8-dimethyl-3-((1-methyl-1H-indazol-3-yl)methyl)-4-oxo-3,4-dihydroquinazolin-5-yl)-5-hydroxypicolinamide]: the half-maximal inhibitory concentration (IC50) was 100 to 500 nM. For the compound `[2H]C([2H])([2H])c1nc2c(F)ccc(NC(=O)c3cc(Cl)c(O)c(Cl)n3)c2c(=O)n1Cc1ccccc1C(F)(F)F` [Example 184, 4,6-dichloro-N-(8-fluoro-2-(methyl-d3)-4-oxo-3-(2-(trifluoromethyl)benzyl)-3,4-dihydroquinazolin-5-yl)-5-hydroxypicolinamide], the IC50 is 100 to 500 nM. `O=C(Nc1cccc2ncn(Cc3nncs3)c(=O)c12)c1cc(Cl)c(O)c(Cl)c1` [Example 14, N-(3-((1,3,4-thiadiazol-2-yl)methyl)-4-oxo-3,4-dihydroquinazolin-5-yl)-3,5-dichloro-4-hydroxybenzamide] returned an IC50 of 1000 to 10000 nM. As for `[2H]C([2H])([2H])c1nc2c(C)ccc(NC(=O)c3cc(Cl)c(O)c(Cl)c3)c2c(=O)n1Cc1ccccc1OC(F)(F)F` [Example 169, 3,5-dichloro-4-hydroxy-N-(8-methyl-2-(methyl-d3)-4-oxo-3-(2-(trifluoromethoxy)benzyl)-3,4-dihydroquinazolin-5-yl)benzamide], the IC50 is no more than 100 nM.

For the compound `COc1ccccc1CCn1cnc2cccc(NC(=O)c3cc(Cl)c(O)c(Cl)c3)c2c1=O` [Example 36, 3,5-dichloro-4-hydroxy-N-(3-(2-methoxyphenethyl)-4-oxo-3,4-dihydroquinazolin-5-yl)benzamide], the IC50 lay in the range of 100 to 500 nM. The same measure for `O=C(Nc1cccc2ncn(C(c3ccccc3)c3ccccc3)c(=O)c12)c1cc(Cl)c(O)c(Cl)c1` [Example 78, N-(3-benzhydryl-4-oxo-3,4-dihydroquinazolin-5-yl)-3,5-dichloro-4-hydroxybenzamide]: no more than 100 nM; for `Cn1nc(NC(=O)c2cc(Cl)c(O)c(Cl)c2)c2c(=O)n(Cc3ccccc3)cnc21` [Example 99, N-(5-benzyl-1-methyl-4-oxo-4,5-dihydro-1H-pyrazolo[3,4-d]pyrimidin-3-yl)-3,5-dichloro-4-hydroxybenzamide]: 1000 to 10000 nM; for `O=C(Nc1ncsc1C(=O)NCc1ccc(F)cc1F)c1cc(Cl)c(O)c(Cl)c1` [Example 28, 4-(3,5-dichloro-4-hydroxybenzamido)-N-(2,4-difluorobenzyl)thiazole-5-carboxamide]: 1000 to 10000 nM.

As for `O=C(Nc1cccc2ncn(Cc3ccccc3N3CCOCC3)c(=O)c12)c1cc(Cl)c(O)c(Cl)c1` [Example 84, 3,5-dichloro-4-hydroxy-N-(3-(2-morpholinobenzyl)-4-oxo-3,4-dihydroquinazolin-5-yl)benzamide], the IC50 was no more than 100 nM. As to `O=C(Nc1cccc2ncn(Cc3ccccc3F)c(=O)c12)c1cc(Cl)c(O)c(Cl)n1` [Example 44, 4,6-dichloro-N-(3-(2-fluorobenzyl)-4-oxo-3,4-dihydroquinazolin-5-yl)-5-hydroxypicolinamide], the IC50 was no more than 100 nM.

Take `O=C(Nc1cccc2ncn([C@@H]3C[C@H]3c3ccccc3)c(=O)c12)c1cc(Cl)c(O)c(Cl)c1` (racemic) [Example 102, Rac-3,5-dichloro-4-hydroxy-N-(4-oxo-3-((1R,2S)-2-phenylcyclopropyl)-3,4-dihydroquinazolin-5-yl)benzamide]: the IC50 lay within 1000 to 10000 nM.

`O=C(Nc1cccc2ncn(Cc3cccnc3)c(=O)c12)c1cc(Cl)c(O)c(Cl)c1` [Example 80, 3,5-dichloro-4-hydroxy-N-(4-oxo-3-(pyridin-3-ylmethyl)-3,4-dihydroquinazolin-5-yl)benzamide] registered an IC50 of 500 to 1000 nM. The same measure for `Cc1ccc(NC(=O)c2cc(Cl)c(O)c(Cl)c2)c2c(=O)n(Cc3ncccc3Cl)c(C)nc12` [Example 172, 3,5-dichloro-N-(3-((3-chloropyridin-2-yl)methyl)-2,8-dimethyl-4-oxo-3,4-dihydroquinazolin-5-yl)-4-hydroxybenzamide]: 100 to 500 nM. `Cc1ccc(NC(=O)c2cc(Cl)c(O)c(Cl)n2)c2c(=O)n(Cc3ccccc3OC(F)(F)F)c(C)nc12` [Example 141, 4,6-dichloro-N-(2,8-dimethyl-4-oxo-3-(2-(trifluoromethoxy)benzyl)-3,4-dihydroquinazolin-5-yl)-5-hydroxypicolinamide] had an IC50 of no more than 100 nM. Compound `O=C(Nc1ncsc1C(=O)NCC1CCC(F)(F)CC1)c1cc(Cl)c(O)c(Cl)c1` [Example 30, 4-(3,5-dichloro-4-hydroxybenzamido)-N-((4,4-difluorocyclohexyl)methyl) thiazole-5-carboxamide] returned an IC50 of 500 to 1000 nM. Regarding `O=C(Nc1cccc2ncn(Cc3cccnc3OC(F)(F)F)c(=O)c12)c1cc(Cl)c(O)c(Cl)c1` [Example 87, 3,5-dichloro-4-hydroxy-N-(4-oxo-3-((2-(trifluoromethoxy)pyridin-3-yl)methyl)-3,4-dihydroquinazolin-5-yl)benzamide], the half-inhibitory concentration (IC50) fell in the range of 100 to 500 nM. Turning to `O=C(Nc1cccc2ncn(Cc3cccnc3Cl)c(=O)c12)c1cc(Cl)c(O)c(Cl)c1` [Example 122, 3,5-dichloro-N-(3-((2-chloropyridin-3-yl)methyl)-4-oxo-3,4-dihydroquinazolin-5-yl)-4-hydroxybenzamide], the IC50 was 100 to 500 nM. The same measure for `Cc1nc2c(Cl)ccc(NC(=O)c3cc(Cl)c(O)c(Cl)n3)c2c(=O)n1Cc1ncccc1C(F)(F)F` [Example 165, 4,6-dichloro-N-(8-chloro-2-methyl-4-oxo-3-((3-(trifluoromethyl)pyridin-2-yl)methyl)-3,4-dihydroquinazolin-5-yl)-5-hydroxypicolinamide]: 100 to 500 nM; for `Cc1ccc(NC(=O)c2cc(Cl)c(O)c(Cl)c2)c2c(=O)n([C@@H]3CC[C@H]3c3ccccc3)c(C)nc12` [Example 203, 3,5-dichloro-N-(2,8-dimethyl-4-oxo-3-((1R,2S)-2-phenylcyclobutyl)-3,4-dihydroquinazolin-5-yl)-4-hydroxybenzamide]: no more than 100 nM.

With `O=C(Nc1cccc2ncn([C@@H]3CC[C@H]3c3ccccc3)c(=O)c12)c1cc(Cl)c(O)c(Cl)n1` (racemic) [Example 175, rac-4,6-dichloro-5-hydroxy-N-(4-oxo-3-((1R,2S)-2-phenylcyclobutyl)-3,4-dihydroquinazolin-5-yl)picolinamide], the IC50 lay in the range of 100 to 500 nM.

As for `Cc1nc2c(F)ccc(NC(=O)c3cc(Cl)c(O)c(Cl)c3)c2c(=O)n1Cc1ccccc1OC(F)(F)F` [Example 168, 3,5-dichloro-N-(8-fluoro-2-methyl-4-oxo-3-(2-(trifluoromethoxy)benzyl)-3,4-dihydroquinazolin-5-yl)-4-hydroxybenzamide], the IC50 was no more than 100 nM. In the case of `O=C(Nc1cccc2ncn(Cc3cccnc3F)c(=O)c12)c1cc(Cl)c(O)c(Cl)n1` [Example 138, 4,6-dichloro-N-{3-[(2-fluoropyridin-3-yl)methyl]-4-oxo-3,4-dihydroquinazolin-5-yl}-5-hydroxypyridine-2-carboxamide] it was 100 to 500 nM; in that of `N#Cc1ccccc1Cn1cnc2cccc(NC(=O)c3cc(Cl)c(O)c(Cl)n3)c2c1=O` [Example 66, 4,6-dichloro-N-(3-(2-cyanobenzyl)-4-oxo-3,4-dihydroquinazolin-5-yl)-5-hydroxypicolinamide], 100 to 500 nM.
